Like-named read-outs stand apart in the source and are kept apart here.
Tests used:
[1] = tested on: Imp4 beta-lactamase (class B); experiment: Screening of beta-lactamases by competition, nitrocefin as reporter substrate; type: biochemical
[2] = target: T1, beta-lactamase class D OXA-48 (Klebsiella pneumoniae, UniProt Q6XEC0); type: biochemical; conditions: OXA-48, nitrocefin, 482 nm
[3] = target: Kpc2 beta-lactamase (class A) (Klebsiella pneumoniae, UniProt Q9F663); type: biochemical; conditions: nitrocefin reporter
[4] = target: BlaP beta-lactamase (class A) (Bacillus licheniformis, UniProt P00808); type: biochemical; conditions: nitrocefin reporter
[5] = target: Oxa48 beta-lactamase (class D) (Klebsiella pneumoniae, UniProt Q6XEC0); type: biochemical; conditions: nitrocefin reporter
[6] = tested on: AmpCHD beta-lactamase (class C); experiment: Screening of beta-lactamases by competition, nitrocefin as reporter substrate; type: biochemical
[7] = target: Imp1 beta-lactamase (class B) (Serratia marcescens, UniProt P52699); type: biochemical; conditions: nitrocefin reporter
[8] = target: T1, beta-lactamase class D OXA-48; type: biochemical; conditions: for Accuracy <> (average) / [Meropenem] <> (average): average of 5 replicates
Description: The specificity (or selectivity) of the method according to an embodiment of the invention is defined as the ability of the method to measure the concentration of a carbapenem antibiotic (such as meropenem) in presence of an excess of another beta-lactam antibiotic (second beta-lactam) currently used in ICUs (see Table 4).
To determine the specificity of the method illustrating the invention for carbapenem antibiotics, in particular meropenem, versus other beta-lactam antibiotics, stock-solutions of second beta-lactam antibiotics were prepared in water.
An excess of a second beta-lactam concentration of up to 10 times the concentration of meropenem was used.

[9] = target: P99 beta-lactamase (class C) (Enterobacter cloacae, UniProt P05364); type: biochemical; conditions: nitrocefin reporter
OXA-163 = conditions: OXA-163, for meropenem; cited from earlier work
[10] = target: CTXM15 beta-lactamase (class A) (Escherichia coli, UniProt Q9EXV5); type: biochemical; conditions: nitrocefin reporter
OXA-48 = OXA-48 (Klebsiella pneumoniae, UniProt Q6XEC0); conditions: OXA-48, for meropenem; cited from earlier work
[11] = Meropenem 1.2 mg/L, second β-lactam 10.0 mg/L (8.4 times excess)
[12] = Meropenem 20.0 mg/L, second β-lactam 200.0 mg/L (10 times excess)

T1 sequence (Q6XEC0 23-265 limits assumed): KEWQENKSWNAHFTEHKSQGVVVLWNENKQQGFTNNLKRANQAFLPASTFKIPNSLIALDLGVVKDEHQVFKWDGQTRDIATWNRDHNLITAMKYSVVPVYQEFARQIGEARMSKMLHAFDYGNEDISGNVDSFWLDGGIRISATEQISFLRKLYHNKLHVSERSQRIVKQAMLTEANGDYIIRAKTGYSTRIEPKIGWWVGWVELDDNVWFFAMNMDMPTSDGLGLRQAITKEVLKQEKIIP
Chain of Kpc2 beta-lactamase (class A) (Q9F663 25-293 limits assumed): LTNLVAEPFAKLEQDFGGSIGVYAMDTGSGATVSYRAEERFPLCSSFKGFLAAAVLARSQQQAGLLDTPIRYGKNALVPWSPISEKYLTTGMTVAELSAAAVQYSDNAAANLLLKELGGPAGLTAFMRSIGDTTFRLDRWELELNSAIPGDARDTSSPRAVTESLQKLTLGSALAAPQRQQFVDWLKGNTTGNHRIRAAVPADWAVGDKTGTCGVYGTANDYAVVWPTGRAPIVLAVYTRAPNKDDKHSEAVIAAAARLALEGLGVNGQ
Chain of CTXM15 beta-lactamase (class A) (Q9EXV5 29-291 limits assumed): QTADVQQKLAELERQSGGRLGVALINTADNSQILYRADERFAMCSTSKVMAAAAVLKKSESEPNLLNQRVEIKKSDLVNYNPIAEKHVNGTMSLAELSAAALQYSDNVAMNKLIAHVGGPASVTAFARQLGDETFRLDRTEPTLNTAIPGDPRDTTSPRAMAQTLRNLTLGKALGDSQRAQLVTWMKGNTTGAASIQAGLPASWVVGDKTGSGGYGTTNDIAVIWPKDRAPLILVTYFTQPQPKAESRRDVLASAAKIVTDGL
Chain of Oxa48 beta-lactamase (class D) (Q6XEC0 23-265 limits assumed): as the sequence (Q6XEC0 23-265 limits assumed) above
Chain of OXA-48 (Q6XEC0 23-265 limits assumed): as above
Chain of Imp1 beta-lactamase (class B) (P52699 19-246 limits assumed): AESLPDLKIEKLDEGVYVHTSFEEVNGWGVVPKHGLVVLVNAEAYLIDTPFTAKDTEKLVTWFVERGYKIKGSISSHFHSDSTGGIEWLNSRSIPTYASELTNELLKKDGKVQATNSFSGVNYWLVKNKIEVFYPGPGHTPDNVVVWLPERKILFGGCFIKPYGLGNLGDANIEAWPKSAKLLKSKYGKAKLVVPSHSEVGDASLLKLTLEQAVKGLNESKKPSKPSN
Chain of BlaP beta-lactamase (class A) (P00808 27-307 limits assumed): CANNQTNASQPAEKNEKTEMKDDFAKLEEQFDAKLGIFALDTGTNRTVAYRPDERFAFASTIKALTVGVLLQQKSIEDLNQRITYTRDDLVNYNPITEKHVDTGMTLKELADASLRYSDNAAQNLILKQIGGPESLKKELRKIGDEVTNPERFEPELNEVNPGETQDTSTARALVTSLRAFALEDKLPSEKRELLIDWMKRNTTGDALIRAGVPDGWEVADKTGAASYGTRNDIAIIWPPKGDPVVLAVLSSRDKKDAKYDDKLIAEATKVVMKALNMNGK
Chain of P99 beta-lactamase (class C) (P05364 21-381): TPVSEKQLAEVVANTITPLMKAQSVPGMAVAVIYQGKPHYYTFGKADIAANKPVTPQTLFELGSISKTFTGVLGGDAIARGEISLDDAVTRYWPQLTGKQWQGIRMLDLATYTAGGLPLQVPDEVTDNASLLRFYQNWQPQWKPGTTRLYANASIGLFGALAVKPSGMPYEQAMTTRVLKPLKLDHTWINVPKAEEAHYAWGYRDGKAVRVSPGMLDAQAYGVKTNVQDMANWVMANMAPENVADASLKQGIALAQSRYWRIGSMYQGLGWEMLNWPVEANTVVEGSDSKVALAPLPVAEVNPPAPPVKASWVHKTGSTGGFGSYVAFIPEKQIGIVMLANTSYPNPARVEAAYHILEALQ

## C[C@@H](O)[C@H]1C(=O)N2C(C(=O)O)=C(S[C@@H]3CN[C@H](C(=O)N(C)C)C3)[C@H](C)[C@H]12 [Meropenem, meropenem]
[1]
  hydrolysis rate symbol, (Vmax/V0)-1: + (0.1-1)
[2]
  lower limit of quantification (LLOQ): 0.5 mg/L
  upper limit of quantification (ULOQ): 20 mg/L
[3]
  hydrolysis rate symbol, (Vmax/V0)-1: + (0.1-1)
[4]
  hydrolysis rate symbol, (Vmax/V0)-1: + (0.1-1)
[5]
  hydrolysis rate symbol, (Vmax/V0)-1: +++ (10-100)
[6]
  hydrolysis rate symbol, (Vmax/V0)-1: + (0.1-1)
[7]
  hydrolysis rate symbol, (Vmax/V0)-1: + (0.1-1)
[8]; [11]
  Accuracy <> (average): 100%
  [Meropenem] <> (average): 1.2 mg/L
  Accuracy Replicate 1: 98%
  [Meropenem] Replicate 1: 1.1 mg/L
  Accuracy Replicate 2: 100%
  [Meropenem] Replicate 2: 1.2 mg/L
  Accuracy Replicate 3: 97%
  [Meropenem] Replicate 3: 1.1 mg/L
  Accuracy Replicate 4: 108%
  [Meropenem] Replicate 4: 1.3 mg/L
  Accuracy Replicate 5: 97%
  [Meropenem] Replicate 5: 1.1 mg/L
[8]; [12]
  Accuracy <> (average): 100%
  [Meropenem] <> (average): 20.2 mg/L
  Accuracy Replicate 1: 103%
  [Meropenem] Replicate 1: 20.7 mg/L
  Accuracy Replicate 2: 104%
  [Meropenem] Replicate 2: 20.9 mg/L
  Accuracy Replicate 3: 98%
  [Meropenem] Replicate 3: 19.8 mg/L
  Accuracy Replicate 4: 98%
  [Meropenem] Replicate 4: 19.9 mg/L
  Accuracy Replicate 5: 97%
  [Meropenem] Replicate 5: 19.6 mg/L
[9]
  hydrolysis rate symbol, (Vmax/V0)-1: +++ (10-100)
OXA-163
  Km: 2200 µM
[10]
  hydrolysis rate symbol, (Vmax/V0)-1: +++ (10-100)
OXA-48
  Km: 200 µM
